Test results taken from patent US7666414B2, “Methods for treating prostate cancer using modified antibodies to prostate-specific membrane antigen” (Cornell Research Foundation, Inc., priority 2001, dated 2010).
Where two headings read alike, the source gives them in different places.

Key:
[1] = tested on: PSMA-positive CWR22 xenografts; assay: Efficacy in PSMA-positive CWR22 xenografts; format: in vivo, C.B-17 scid mice
Description: (§1) Experiment: Male SCID mice were implanted by serial passage of CWR22 prostate tumor xenograft. […] All treatments were given intravenously. Tumor growth and animal health were continually monitored throughout the study with tumor growth measured every 3 days.
Experiment: Male C.B-17 SCID mice bearing CWR22 xenografts approximately 200 mm^3 in size received IV injections (200 μL constant volume) of the test articles according to the dose and schedule as shown in Table 22.
Male C.B-17 scid mice bearing CWR22 xenografts approximately 200 mm^3 in size received IV injections (200 μL constant volume) of the test articles according to the dose and schedule shown in the Table 23.
The objective of this study was to determine how much the dosing interval could be increased at this dosage before a loss of efficacy in terms of TGD would be observed. […] The growth delays for the other schedules were: q7d, 53.0 days; q21d, 48.0 days; and q28d, 26.9 days. Similar to other studies using the CWR22 xenograft model, no curative responses were observed, with all tumors eventually resuming growth (FIG. 18).
as §1, with “intravenously and on a schedule of every three days for 5 doses.” for “intravenously.”
as §1, with “intravenously and on a schedule of every seven days for 5 doses.” for “intravenously.”

[2] = tested on: LNCaP cells tumor xenografts; assay: Murine J591-DM1 immunoconjugate in LNCaP xenografts; format: in vivo, BALB/c mice; conditions: unconjugated, alone or with unconjugated mAb J591, intraperitoneal qday x 5 days
Description: Tumor xenografts of LNCaP cells were established in the right flank of BALB/c mice (5×10^6 cells injected subcutaneously). Animals were observed until tumors were visible (7-10 mm). Animals were then treated with PBS, unconjugated mAb J591, unconjugated DM1, both mAb J591 and DM1 but unconjugated, and J591-DM1 immunoconjugate (100, 200, 300, and 400 mcg/day intraperitoneal qday×5 days). The mAb J591 was modified to introduce dithiopyridyl groups and then conjugated to DM1 via a hindered disulfide bond, as described above. Unconjugated mAb J591 and DM1 were given in equimolar concentrations.
Tumor xenografts of both LNCaP cells (5×10^6 cells injected subcutaneously in the right flank) and PC3 cells (3×10^6 cells injected subcutaneously in the left flank) were established in BALB/c mice. Animals were observed until LNCaP tumors were visible (PC3 tumors were present but much smaller). Animals treated with J591-DM1 immunoconjugate: 300 mcg/day intraperitoneal qday×5 days
Tumor xenografts of LNCaP cells were established subcutaneously in the right flank of BALB/c mice. […]
All animals were photographed pre- and post-treatment and tagged for identification. Tumor volume was determined (length×width×depth) and closely followed. […]

[3] = tested on: PSMA-positive 22RV1 xenografts; assay: Efficacy in castrate or intact scid mice bearing androgen-independent 22RV1 xenograft; format: in vivo, C.B-17 scid mice; conditions: 240 μg/kg, q3dX5
Description: Prostate tumors can be broadly classified as either androgen-dependent or androgen-independent. […] The 22RV1 cell line was originally developed as androgen-independent and can be grown as a xenograft in C.B-17 scid mice that have been left either intact or castrated. […] C.B-17 scid mice bearing CWR22 xenografts approximately 200 mm^3 in size received IV injections (200 μL constant volume) of the test articles according to the dosage and schedule shown in the Table 24.

CD-1 mice = tested on: CD-1 mice
Description: Use of both mice and cynomolgus monkeys for nonclinical testing allowed comparison of exposure and toxicity across species on the basis of body surface area (mg/m^2), and thus aided in selecting the SSD for the proposed Phase 1 clinical trial.

COc1cc2cc(c1Cl)N(C)C(=O)C[C@H](OC(=O)[C@H](C)N(C)C(=O)CCS)[C@]1(C)O[C@H]1[C@H](C)[C@@H]1C[C@@](O)(NC(=O)O1)[C@H](OC)/C=C/C=C(\C)C2 [DM1, reference compound]
Tumor Growth Delay ([1]; Comparison II, 240 μg/kg, q3dX5): 9.5 days
effect on CWR22 xenograft tumor growth ([1]; every three days for 5 doses, IV, equimolar to 14.5 mg/kg deJ591-DM1): some tumor growth delay
lethality [2]: died within 48 hours of treatment completion
Relative TGD (TGD of castrate mice/TGD of intact mice) [3]: 1.4
Tumor Growth Delay ([3]; Castrate Mice): 9.1 days
Tumor Growth Delay ([3]; Intact Mice): 6.3 days
Degree of Toxicity and Major Target Organs (CD-1 mice; DM1 0.86 mg/m^2 (0.29 mg/kg), single IV, CD-1 mice): Slight mitosis/necrosis of epidermis
Degree of Toxicity and Major Target Organs (CD-1 mice; DM1 1.62 mg/m^2 ([…]), single IV, CD-1 mice): Mild bone marrow myeloid
mortality (CD-1 mice; DM1 8.64 mg/m^2 (2.88 mg/kg), single IV, CD-1 mice): 100% mortality attributed to severe
elevated AST and ALT values (CD-1 mice; DM1 […]^2 (1.08 mg/kg), single IV, CD-1 mice): moderate mitosis/necrosis of liver; no
STD (CD-1 mice; severely toxic dosage, single IV, CD-1 mice): 1.80 mg/kg
toxicity compared to deJ591-DM1 at equimolar dosages (CD-1 mice; single IV administration): tended to be less toxic than deJ591-DM1 at lower dosages
MTD (CD-1 mice; single IV, CD-1 mice): 1.08 mg/kg
